From patent publication US12240843B2, “Substituted 1,2,4-triazolo[4,3-a]pyridine derivative and preparation method, herbicidal composition and application thereof” (Qingdao Kingagroot Chemical Compound Co., Ltd., priority 2019, dated 2025) come the findings set out here.

Holding throughout (type): in vivo
Series [1] relates to Leptochloa chinensis. The series can be described thus: Weeding effect in post-emergence stage, greenhouse pot spray. The method, then: (§1) The above growth control rates are fresh weight control rates.
(§2) (1) Experiment on weeding effect in post-emergence stage: monocotyledonous and dicotyledonous weed seeds and major crop seeds (wheat, corn, rice, soybean, cotton, oilseed rape, millet, Sorghum) were placed in plastic pots filled with soil, then covered with 0.5-2 cm of soil, allowed to grow in a good greenhouse environment. After 2 weeks of sowing, the test plants were treated. The tested compounds of the present invention were respectively dissolved in acetone, then added with Tween 80, diluted with a certain amount of water to obtain a solution with a certain concentration, added with 1000 g/ha of emulsified methyl oleate as a synergist, and sprayed with a spray tower onto the plants. After the application, the plants were cultured for 3 weeks in the greenhouse, and then the experimental results of the weeding were listed in Table 2-3.

Series [2] deals with Echinochloa crusgalli. The description is as above. The method, then:
as §1, §2

Series [3] concerns Amaranthus retroflexus L. The series is described as above. The conditions noted are these: 240 g/ha active ingredient, plus water 450 kg/ha; weeds 2-3 leaf stage; 3 weeks after application. The method, then:
as §1, §2

For series [4], the system named is Digitaria sanguinalis. Described as above. The method, then:
as §1, §2

For series [5], the system named is rice (indica rice huanghuazhan). The series can be described thus: Post-emergence stage crop damage, greenhouse pot spray. The conditions noted are these: for plant damage level, rice (indica rice huanghuazhan), post-emergence: 240 g/ha active ingredient, plus water 450 kg/ha, 3 weeks after application. The method, then: as §2
The test system of a further series is rice. The series can be described thus: Pre-emergence stage crop selectivity. The conditions noted are these: dose not given. The method, then: (§3) Seeds of monocotyledonous and dicotyledonous weeds and main crops (e.g. wheat, corn, rice, soybean, cotton, oilseed rape, millet and Sorghum) were put into a plastic pot loaded with soil and covered with 0.5-2 cm soil. The test compounds of the present invention was dissolved with acetone, then added with tween 80, diluted by a certain amount of water to reach a certain concentration, and sprayed immediately after sowing. The obtained seeds were incubated for 4 weeks in the greenhouse after spraying and the test results were observed. It was observed that the herbicide mostly had excellent effect at the application rate of 250 g a.i./ha, especially to weeds such as Echinochloa crusgalli, Digitaria sanguinalis, Leptochloa chinensis, and Abutilon theophrasti, etc. . . . And many compounds had good selectivity for corn, wheat, rice, soybean, and oilseed rape, etc. . . .

In the next series the test system is japonica rice. The series can be described thus: Post-emergence stage crop damage, greenhouse pot spray.
Excerpt: (§4) The activity level criteria for plant damage (i.e., growth control rate) are as follows: • Level 5: growth control rate is above 85%; • Level 4: growth control rate is greater than or equal to 60% and less than 85%; • Level 3: growth control rate is greater than or equal to 40% and less than 60%; • Level 2: growth control rate is greater than or equal to 20% and less than 40%; • Level 1: growth control rate is greater than or equal to 5% and less than 20%; • Level 0: growth control rate is less than 5%.
as §1, §2

Series [6] concerns Leptochloa chinensis. The series can be described thus: Weed effect in pre-emergence stage. The conditions noted are these: direct seeding of rice; dose not given. The method, then:
as §3

The next series deals with Abutilon theophrasti. The series can be described thus: Weed effect in pre-emergence stage. The conditions noted are these: direct seeding of rice; dose not given. The method, then: as §3
Series [7] relates to Echinochloa crusgalli. The series can be described thus: Weed effect in pre-emergence stage. The conditions noted are these: direct seeding of rice; dose not given. The method, then:
as §3

The test system of series [8] is Digitaria sanguinalis. The series can be described thus: Weed effect in pre-emergence stage. The conditions noted are these: direct seeding of rice; dose not given. The method, then:
as §3

A further series has as its system Setaria viridis. The series can be described thus: Weeding effect in post-emergence stage, greenhouse pot spray.
Excerpt: as §4, §1, §2

Setting [9] is: 240 g/ha active ingredient, plus water 450 kg/ha, weeds 2-3 leaf stage, 3 weeks after application.

Structures are written as SMILES.

For `CSc1nnc2c(Cl)c(C(=O)C3C(=O)CCCC3=O)ccn12` [Compound 118], in the series with Leptochloa chinensis [1] (setting [9]), the “weeding effect in post-emergence stage, Leptochloa chinensis (activity level)” value is listed as 5 (Level 5: growth control rate is above 85%). Also, in the series with Echinochloa crusgalli [2] (setting [9]), the “weeding effect in post-emergence stage, Echinochloa crusgalli (activity level)” value was 5 (Level 5: growth control rate is above 85%). Further, in series [3], the “weeding effect in post-emergence stage, Amaranthus retroflexus L. (activity level)” value was 5 (Level 5: growth control rate is above 85%). Moreover, the “weeding effect in post-emergence stage, Digitaria sanguinalis (activity level)” value in the series with Digitaria sanguinalis [4] (setting [9]) was 5 (Level 5: growth control rate is above 85%). Further, in series [5], the “plant damage level, rice (indica rice huanghuazhan), post-emergence” value (“plant damage level, rice” below) was 0 (Level 0: growth control rate is less than 5%).

On to `O=C1CCCC(=O)C1C(=O)c1ccn2c(C3CC3)nnc2c1Cl` [Compound 2], for which the “weeding effect in post-emergence stage, Leptochloa chinensis (activity level)” value in the series on Leptochloa chinensis [1] (setting [9]), with Leptochloa chinensis [1] (Dose 30 g/ha), with Leptochloa chinensis [1] (Dose 60 g/ha) and in the series on Leptochloa chinensis [1] (Dose 120 g/ha) was 5 (Level 5: growth control rate is above 85%) throughout. Moreover, the “weeding effect in post-emergence stage, Echinochloa crusgalli (activity level)” value in the series on Echinochloa crusgalli [2] (setting [9]), in the series with Echinochloa crusgalli [2] (Dose 30 g/ha), in the series on Echinochloa crusgalli [2] (Dose 60 g/ha) and with Echinochloa crusgalli [2] (Dose 120 g/ha) was 5 (Level 5: growth control rate is above 85%) in each case. For the same compound, the “weeding effect in post-emergence stage, Amaranthus retroflexus L. (activity level)” value in [3] is listed as 5 (Level 5: growth control rate is above 85%). Also, the “weeding effect in post-emergence stage, Digitaria sanguinalis (activity level)” value in the series with Digitaria sanguinalis [4] (setting [9]), with Digitaria sanguinalis [4] (Dose 30 g/ha), with Digitaria sanguinalis [4] (Dose 60 g/ha) and in the series on Digitaria sanguinalis [4] (Dose 120 g/ha) was 5 (Level 5: growth control rate is above 85%) throughout. The “safety for direct seeding of rice, pre-emergence” value with rice is “safe and efficient”. Moreover, the “plant damage level, rice” value in series [5] is recorded as 0 (Level 0: growth control rate is less than 5%). Further, the “plant damage level, indica rice, post-emergence” value in [5] (Dose 30 g/ha), in [5] (Dose 60 g/ha) and in [5] (Dose 120 g/ha) was 0 (Level 0: growth control rate is less than 5%) throughout. In addition, the “plant damage level, japonica rice, post-emergence” value with japonica rice (Dose 30 g/ha), with japonica rice (Dose 60 g/ha) and in the series with japonica rice (Dose 120 g/ha) was 0 (Level 0: growth control rate is less than 5%) in each case. Also, the “sealing effects on Leptochloa chinensis, pre-emergence” value in the series on Leptochloa chinensis [6] is reported as “excellent sealing effects”. Moreover, the “sealing effects on Abutilon theophrasti, pre-emergence” value in the series with Abutilon theophrasti is reported as “excellent sealing effects”. Also, the “sealing effects on Echinochloa crusgalli, pre-emergence” value in the series with Echinochloa crusgalli [7] is listed as “excellent sealing effects”. The “sealing effects on Digitaria sanguinalis, pre-emergence” value in the series on Digitaria sanguinalis [8] was “excellent sealing effects”. The “weeding effect in post-emergence stage, Setaria viridis (activity level)” value with Setaria viridis (Dose 30 g/ha), in the series on Setaria viridis (Dose 60 g/ha) and in the series on Setaria viridis (Dose 120 g/ha) was 5 (Level 5: growth control rate is above 85%) in each case.

`COc1nnc2c(Cl)c(C(=O)C3C(=O)CCCC3=O)ccn12` [Compound 114]: the “weeding effect in post-emergence stage, Leptochloa chinensis (activity level)” value in the series on Leptochloa chinensis [1] (setting [9]) is reported as 5 (Level 5: growth control rate is above 85%). Further, in the series with Echinochloa crusgalli [2] (setting [9]), the “weeding effect in post-emergence stage, Echinochloa crusgalli (activity level)” value is reported as 5 (Level 5: growth control rate is above 85%). Moreover, the “weeding effect in post-emergence stage, Amaranthus retroflexus L. (activity level)” value in [3] is 5 (Level 5: growth control rate is above 85%). In addition, the “weeding effect in post-emergence stage, Digitaria sanguinalis (activity level)” value in the series with Digitaria sanguinalis [4] (setting [9]) is 5 (Level 5: growth control rate is above 85%). For the same compound, the “plant damage level, rice” value in [5] is 0 (Level 0: growth control rate is less than 5%).

Take `O=C1CCCC(=O)C1C(=O)c1ccn2c(C3CC3(F)F)nnc2c1Cl` (centres unmarked) [Compound 87]: the “weeding effect in post-emergence stage, Leptochloa chinensis (activity level)” value with Leptochloa chinensis [1] (setting [9]) is given as 5 (Level 5: growth control rate is above 85%). Moreover, in the series with Echinochloa crusgalli [2] (setting [9]), the “weeding effect in post-emergence stage, Echinochloa crusgalli (activity level)” value is 4 (Level 4: growth control rate is greater than or equal to 60% and less than 85%). Also, in series [3], the “weeding effect in post-emergence stage, Amaranthus retroflexus L. (activity level)” value is on record as 5 (Level 5: growth control rate is above 85%). Also, in the series on Digitaria sanguinalis [4] (setting [9]), the “weeding effect in post-emergence stage, Digitaria sanguinalis (activity level)” value was 4 (Level 4: growth control rate is greater than or equal to 60% and less than 85%). For the same compound, in series [5], the “plant damage level, rice” value is recorded as 0 (Level 0: growth control rate is less than 5%).

`O=C(c1ccn2c(C3CC3)nnc2c1Cl)C1C(=O)C2CCC(C2)C1=O` (centres unmarked) [Compound 274]: the “weeding effect in post-emergence stage, Leptochloa chinensis (activity level)” value with Leptochloa chinensis [1] (setting [9]), in the series on Leptochloa chinensis [1] (Dose 30 g/ha), with Leptochloa chinensis [1] (Dose 60 g/ha) and in the series on Leptochloa chinensis [1] (Dose 120 g/ha) was 5 (Level 5: growth control rate is above 85%) throughout. Moreover, the “weeding effect in post-emergence stage, Echinochloa crusgalli (activity level)” value with Echinochloa crusgalli [2] (setting [9]), in the series on Echinochloa crusgalli [2] (Dose 30 g/ha), in the series on Echinochloa crusgalli [2] (Dose 60 g/ha) and in the series on Echinochloa crusgalli [2] (Dose 120 g/ha) was 5 (Level 5: growth control rate is above 85%) each time. In addition, the “weeding effect in post-emergence stage, Amaranthus retroflexus L. (activity level)” value in [3] was 5 (Level 5: growth control rate is above 85%). The “weeding effect in post-emergence stage, Digitaria sanguinalis (activity level)” value with Digitaria sanguinalis [4] (setting [9]), in the series with Digitaria sanguinalis [4] (Dose 30 g/ha), in the series on Digitaria sanguinalis [4] (Dose 60 g/ha) and in the series on Digitaria sanguinalis [4] (Dose 120 g/ha) was 5 (Level 5: growth control rate is above 85%) each time. Further, the “safety for direct seeding of rice, pre-emergence” value with rice was “safe and efficient”. For the same compound, the “plant damage level, rice” value in [5] is on record as 0 (Level 0: growth control rate is less than 5%). Moreover, the “plant damage level, indica rice, post-emergence” value in series [5] (Dose 30 g/ha), in [5] (Dose 60 g/ha) and in series [5] (Dose 120 g/ha) was 0 (Level 0: growth control rate is less than 5%) throughout. In addition, the “plant damage level, japonica rice, post-emergence” value in the series with japonica rice (Dose 30 g/ha), with japonica rice (Dose 60 g/ha) and in the series on japonica rice (Dose 120 g/ha) was 0 (Level 0: growth control rate is less than 5%) throughout. In the series with Leptochloa chinensis [6], the “sealing effects on Leptochloa chinensis, pre-emergence” value is on record as “excellent sealing effects”. For the same compound, the “sealing effects on Abutilon theophrasti, pre-emergence” value with Abutilon theophrasti is on record as “excellent sealing effects”. Also, in the series on Echinochloa crusgalli [7], the “sealing effects on Echinochloa crusgalli, pre-emergence” value is “excellent sealing effects”. The “sealing effects on Digitaria sanguinalis, pre-emergence” value in the series on Digitaria sanguinalis [8] was “excellent sealing effects”. For the same compound, the “weeding effect in post-emergence stage, Setaria viridis (activity level)” value in the series with Setaria viridis (Dose 30 g/ha), in the series with Setaria viridis (Dose 60 g/ha) and in the series with Setaria viridis (Dose 120 g/ha) was 5 (Level 5: growth control rate is above 85%) throughout.
